Test results from US10954232B2, “Pyrazole derivative as ALK5 inhibitor and uses thereof” (HANMI PHARMACEUTICAL CO., LTD., priority 2016, dated 2021).

Biological target: T1, ALK5 kinase (Homo sapiens, UniProt P36897)
T1 construct: GST; purchased Thermo Fisher Scientific Solutions
T1 sequence (P36897 34-503): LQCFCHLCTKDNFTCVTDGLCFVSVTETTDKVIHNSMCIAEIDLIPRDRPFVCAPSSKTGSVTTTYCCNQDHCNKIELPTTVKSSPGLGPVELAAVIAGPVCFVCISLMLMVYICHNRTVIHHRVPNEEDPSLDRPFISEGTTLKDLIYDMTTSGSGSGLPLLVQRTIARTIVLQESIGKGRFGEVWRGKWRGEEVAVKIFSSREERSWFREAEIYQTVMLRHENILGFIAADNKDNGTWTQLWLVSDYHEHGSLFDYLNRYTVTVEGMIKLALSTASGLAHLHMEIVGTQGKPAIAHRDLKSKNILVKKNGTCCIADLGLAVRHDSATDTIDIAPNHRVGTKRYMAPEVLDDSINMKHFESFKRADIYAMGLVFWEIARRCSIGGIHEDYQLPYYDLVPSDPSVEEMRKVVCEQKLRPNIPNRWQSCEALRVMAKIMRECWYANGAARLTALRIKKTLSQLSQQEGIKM
Experiment: Activity inhibition test on ALK5 enzyme (LanthaScreen Eu binding kinase assay)
Conditions: kinase tracer 178, 60 minutes at room temperature
Method in brief: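 IC50 is the concentration giving 50% inhibition relative to control, taken from fluorescence after 60 min stirring at room temperature. Final mix held kinase 5 nM, Eu-GST binding antibody 2 nM and tracer 178 10 nM. Compounds were serially diluted from 1 μM to 0.0001 μM.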

Row | Structure (SMILES) | IC50 [nM]
1 | Cc1cccc(-n2nc(C(=O)Nc3ccc(F)cc3F)cc2-c2ccc3ncnn3c2)n1 [Example 134, 5-([1,2,4]triazolo[1,5-α]pyridin-6-yl)-N-(2,4-difluorophenyl)-1-(6-methylpyridin-2-yl)-1H-pyrazole-3-carboxyamide] | 10 to 100
2 | Cc1cccc(-n2nc(C(=O)Nc3cc(F)ccc3F)cc2-c2ccc3ncnn3c2)n1 [Example 135, 5-([1,2,4]triazolo[1,5-α]pyridin-6-yl)-N-(2,5-difluorophenyl)-1-(6-methylpyridin-2-yl)-1H-pyrazole-3-carboxyamide] | 10 to 100
3 | Cc1cccc(-n2nc(C(=O)Nc3ccc(F)c(F)c3)cc2-c2ccc3ncnn3c2)n1 [Example 136, 5-([1,2,4]triazolo[1,5-α]pyridin-6-yl)-N-(3,4-difluorophenyl)-1-(6-methylpyridin-2-yl)-1H-pyrazole-3-carboxyamide] | ~10
4 | Cc1cccc(-n2nc(C(=O)Nc3cc(F)cc(F)c3)cc2-c2ccc3ncnn3c2)n1 [Example 137, 5-([1,2,4]triazolo[1,5-α]pyridin-6-yl)-N-(3,5-difluorophenyl)-1-(6-methylpyridin-2-yl)-1H-pyrazole-3-carboxyamide] | 10 to 100
5 | Cc1cccc(-n2nc(C(=O)Nc3cccc(Cl)c3F)cc2-c2ccc3ncnn3c2)n1 [Example 138, 5-([1,2,4]triazolo[1,5-α]pyridin-6-yl)-N-(3-chloro-2-fluorophenyl)-1-(6-methylpyridin-2-yl)-1H-pyrazole-3-carboxyamide] | 10 to 100
6 | Cc1cccc(-n2nc(C(=O)Nc3ccc(Cl)cc3F)cc2-c2ccc3ncnn3c2)n1 [Example 139, 5-([1,2,4]triazolo[1,5-α]pyridin-6-yl)-N-(4-chloro-2-fluorophenyl)-1-(6-methylpyridin-2-yl)-1H-pyrazole-3-carboxyamide] | 10 to 100
7 | Cc1cccc(-n2nc(C(=O)Nc3ccc(F)c(Cl)c3)cc2-c2ccc3ncnn3c2)n1 [Example 140, 5-([1,2,4]triazolo[1,5-α]pyridin-6-yl)-N-(3-chloro-4-fluorophenyl)-1-(6-methylpyridin-2-yl)-1H-pyrazole-3-carboxyamide] | ~10
8 | Cc1cccc(-n2nc(C(=O)Nc3ccc(Cl)c(Cl)c3)cc2-c2ccc3ncnn3c2)n1 [Example 141, 5-([1,2,4]triazolo[1,5-α]pyridin-6-yl)-N-(3,4-dichlorophenyl)-1-(6-methylpyridin-2-yl)-1H-pyrazole-3-carboxyamide] | 10 to 100
9 | Cc1cccc(-n2nc(C(=O)Nc3ccc(F)cc3Br)cc2-c2ccc3ncnn3c2)n1 [Example 142, 5-([1,2,4]triazolo[1,5-α]pyridin-6-yl)-N-(2-bromo-4-fluorophenyl)-1-(6-methylpyridin-2-yl)-1H-pyrazole-3-carboxyamide] | 10 to 100
10 | CSc1cccc(NC(=O)c2cc(-c3ccc4ncnn4c3)n(-c3cccc(C)n3)n2)c1 [Example 143] | 6.6
11 | CSc1ccc(NC(=O)c2cc(-c3ccc4ncnn4c3)n(-c3cccc(C)n3)n2)cc1 [Example 144] | 10 to 100
12 | Cc1cccc(-n2nc(C(=O)Nc3cccc([S+](C)[O-])c3)cc2-c2ccc3ncnn3c2)n1 (stereo not drawn) [Example 145, 5-([1,2,4]triazolo[1,5-α]pyridin-6-yl)-N-(3-(methylsulfinyl)phenyl)-1-(6-methylpyridin-2-yl)-1H-pyrazole-3-carboxyamide] | 15
13 | Cc1cccc(-n2nc(C(=O)Nc3ccc([S+](C)[O-])cc3)cc2-c2ccc3ncnn3c2)n1 (stereo not drawn) [Example 146, 5-([1,2,4]triazolo[1,5-α]pyridin-6-yl)-N-(4-(methylsulfinyl)phenyl)-1-(6-methylpyridin-2-yl)-1H-pyrazole-3-carboxyamide] | 6
14 | Cc1cccc(-n2nc(C(=O)Nc3ccc(S(C)(=O)=O)cc3)cc2-c2ccc3ncnn3c2)n1 [Example 147, 5-([1,2,4]triazolo[1,5-α]pyridin-6-yl)-N-(4-(methylsulfonyl)phenyl)-1-(6-methylpyridin-2-yl)-1H-pyrazole-3-carboxyamide] | 3.7
